Experimental data as given in patent US8795734B2, “Hydrophobic nanotubes and nanoparticles as transporters for the delivery of drugs into cells” (The Board of Trustees of the Leland Stanford Junior …, priority 2005, dated 2014).

Columns and labels:
NIH-3T3 cells = assay: Apoptosis assay by Annexin V-FITC staining; type: cell-based
Excerpt: We use Annexin V labeled with fluorescein isothiocyanate (Molecular Probes) as an early stage apoptosis marker. One of the earliest indications of apoptosis is the translocation of the membrane phospholipid phosphatidylserine (PS) from the inner to the outer leaflet of the plasma membrane. Once exposed to the extracellular environment, binding sites on PS become available for Annexin V, a ˜35 kDa Ca^2+-dependent, phospholipid binding protein with a high affinity for PS (Pigault, C.; Follenius-Wund, A.; Schmutz, M.; Freyssinet, J.; Brisson, A. J. Mol. Biol. 1994, 236, 199) (also see Sigma Technical Bulletin number MB-390). In this study, NIH 3T3 cells were plated and incubated with SWNT-cytochrome c as described above. […] The cells were co-stained with propidium iodide and immediately analyzed by flow cell cytometry. Apoptosis data in FIG. 3 were for cells free of PI-staining recorded ˜4-5 h after exposure to chloroquine with or without (for control) cyt c-SWNT conjugates.
HeLa (human cervix carcinoma) and NIH-3T3 cell lines, shown previously to undergo cyt-c-induced apoptosis were investigated in this study for intracellular transporting of cyt-c with SWNTs and for apoptosis assay (Cai). Unlike the proteins used for other uptake experiments, cyt-c used for binding to SWNTs and transported inside cells for apoptosis assay were free of any fluorescence label. […]

[1] = system: endosomal compartments of cells; assay: Endosome release of protein-SWNT conjugates by chloroquine (confocal); type: cell-based
Excerpt: A.; Murthy, N.; Press, O. W.; Tirrell, D. A.; Hoffman, A. S.; Stayton, P. S. Bioconj. Chem. 1999, 10, 401; Cho, Y. W.; Kim, J. D.; Park, K. J. Pharm. Pharmacol. 2003, 55, 721). These methods make use of the pH difference across the endosome membrane and the pH response of the polymers or amines. For SWNT transporters, similar complexation schemes can be developed to afford nanotube transporters containing an endosome-releasing agent. While such an effort warrants detailed investigations separately from the current work, we describe here the release of internalized protein-SWNT conjugates from the endosomal compartments by adding chloroquine to cell medium during incubation of cells in protein-SWNT conjugates. […] The resulting osmotic pressure can lead to swelling of the endosomal compartments and eventual rupture (Ogris, M.; Steinlein, P.; Kursa, M.; Mechtler, K.; Kircheis, R.; Wagner, E. Gene Ther. 1998, 5, 1425).
In experiments carried out with and without chloroquine, we noticed a difference in the distribution of the detected fluorescence inside the cells. […] FIG. 2 (a) Cells are incubated with (a) SWNT-CytC conjugate and (b) SWNT-CytC+100 μM of chloroquine at 37° C. and 5% CO2 Confocal images are taken immediately after incubation and washing. […]

HL-60 cells [2] = assay: Cell viability study with PEG-phospholipid functionalized SWNTs (propidium iodide); type: cell-based
Protocol: HL-60 cells were incubated and then washed to remove excess nanotubes, as described above. The cells were then placed into the incubator for an additional 24 h with the RPMI medium. The cells were then examined through a confocal microscope, after being stained with 2% (v/v) of propidium iodide (Biochemika), a common stain for dead cells. Control experiments were carried out for cells without exposure to nanotubes.
The confocal images (not shown) of HL-60 cells were obtained (a) untreated (b) treated with FTIC-PEG-PE modified CNTs for 90 min at 37° C. Cells were washed and allowed to incubate for an additional 24 h prior to confocal analysis. Propidium iodide is added to the suspension in order to stain for dead cells (red cells in the images).

HL-60 cells [3] = assay: Cell proliferation CellTiter 96 MTS assay; type: cell-based, human; details: 2 h incubation, monitored up to 5 days versus untreated cells
Protocol: After incubation with the SWNT-streptavidin conjugate (unlabeled), HL-60 cells were washed and resuspended in RPMI media. The cells were plated in a 6-well plate at a density of ˜8×10^3 cells/well. At 24 h interval, Celltiter96 reagent (Promega) was added to one of the wells and allowed to incubate for ˜2-3 h at 37° C. and 5% CO2. The CellTiter 96 assay uses the tetrazolium compound (3-(4,5-dimethylthiazol-2-yl)-5-(3-carboxymethoxyphenyl)-2-(4-sulfophenyl)-2H-tetrazolium, inner salt; MTS) and the electron-coupling reagent, phenazine methosulfate (PMS). […] The measurement of the absorbance of the formazan can be carried out at 490 nm. […]
We used the CellTiter 96 MTS assay (Promega) to examine the proliferation of HL60 cells following exposure to SWNT-protein conjugates. […] The absorbance of the formazan salt can be measured at 490 nm and correlates to the number of cells in the suspension. The absorbance from the cells incubated with the SWNT-protein conjugates was measured over a period of 5 days in parallel with control cells never exposed to any nanotubes. The absorbance detected by a UV-VIS spectrophotometer was very similar for cells with and without exposure to SWNTs over the 5-day monitoring period.
Cells were incubated with SWNT-SA conjugate (without fluorescent label) for 2 hrs. […] The absorbance is then taken at 490 nm.

CXCR4 = assay: Silencing by PL-PEG-s-s-siRNA conjugates of different nanoparticles; type: cell-based
Excerpt: Conjugates as prepared according to Examples 24-27 were made with nanoparticles other than SWNTs. It was shown that MWNTs, carbon black nanoparticles can all be used to make noncovalent PL-PEG-s-s-siRNA conjugates. […] Referring to FIG. 10A, the silencing effect for these conjugates is shown with reference to SWNT conjugates. The experiments were done with the following:
Referring now to FIG. 10B, CXCR4 silencing is shown for different nanoparticles. Polystyrene spheres (PS, 20 nm and 50 nm) were also used to make noncovalent PL-PEG-s-s-siRNA conjugates. […] The data in FIG. 10B below compares the RNAi effects of PS delivery vs. nanotube delivery.

HL60 and HeLa cells = assay: Internalization of SWNT-protein, SWNT-DNA and SWNT-SS-DNA conjugates (fluorescence confocal, flow cytometry); type: cell-based, human
Protocol: Two cell lines, human promyelomonocytic HL60 cells and cervical cancer HeLa cells were used in the current work. HL60 were cultured in RPMI medium supplemented with 10% fetal bovine serum (FBS), while HeLa cells were cultured in DMEM medium supplemented with 10% FBS and 1% penicillin-streptomycin. The cells were suspended in phosphate buffered saline (PBS), mixed with a SWNT conjugate and incubated for 1-3 h at 37° C., except for the low temperature incubations. The concentration of SWNTs in the incubation solution was typically ˜2.5 mg/L as measured by UV-vis-NIR absorption spectrum, and the cell density was ˜2×10^5 cells/well. Adherent HeLa cells were either trypsinized to detach from the Petri dishes to form a suspension or were seeded overnight in chambered cover-slides.
Both the protein and DNA molecules were labeled with a fluorescent tag (by either Cy3 or Alexa Fluor 488) to allow for confocal fluorescence imaging and flow cytometry analysis.
We carried out incubations of protein-SWNT and DNA-SWNT with HL60 and HeLa cells at 4° C. and with cells pretreated with NaN3.

HL60 cells = assay: Cellular uptake of SWNT conjugates by confocal microscopy and flow cytometry; type: cell-based, human; details: protein alone, versus untreated cells
Protocol: HL60 and Jurkat cells were both grown in RPMI-1640 cell culture medium (Invitrogen) supplemented with 10% fetal bovine serum (FBS). Prior to incubation, the cells were collected by centrifugation and resuspended in RPMI medium at a cell density of 3μ 10^6 cells/mL. Incubation of cells in a nanotube solution was done by mixing 100 μL of the cell suspension with 100 μL of a SWNT solution (2, 3 or 4) at 37° C. unless otherwise stated. The concentration of SWNT in the incubation solution was ˜0.05 mg/mL unless otherwise stated, and the incubation duration was always 1 h in 5% CO2 atmosphere except for time dependent incubation experiments. After incubation, the cells were washed and collected by centrifugation twice, and resuspended in RPMI medium.
FM4-64 (Molecular Probes Inc.) is a classical marker used for staining membrane and endosomes. The cell incubations were carried out under similar conditions as discussed in the previous section, except that FM 4-64 (2% v/v) was added to the incubation mixture. […]
Also, cells were analyzed by a Becton-Dickinson FACScan instrument after incubation in various nanotube solutions. […] We carried out dual detection of red and green fluorescence with the cells. The data presented here represent the mean green fluorescence obtained with a population of 10,000 live cells.

For “cyt-c-SWNT: Cytochrome c (12 kD) non-covalently bound to oxidized SWNTs”, the “percentage of apoptosed cells versus cyt-c alone” value (NIH-3T3 cells; Annexin V-FITC staining) was “significantly higher percentages of apoptosed cells”, the “degree of apoptosis with versus without chloroquine” value (NIH-3T3 cells; in the presence of chloroquine) was “Higher degrees of apoptosis” and the “distribution of fluorescence inside the cells” value ([1]; 100 μM chloroquine) was “diffuse and uniform”. For the same substance, the “distribution of fluorescence inside the cells” value ([1]; absence of chloroquine) was “discrete punctate fluorescence spots”.
For Tween-20, the “effect of surfactant exposure on cells” value (HL-60 cells [2]) was “Cells tended to die”.
With “SWNT-SA conjugate: Streptavidin without fluorescent label non-specifically bound to oxidized SWNTs” the “cell proliferation (absorbance at 490 nm)” value (HL-60 cells [3]) was “does not show any deviation from the proliferation of untreated cells”.
Carbon black was tested, and the “cell entry and siRNA delivery” value (CXCR4) was “able to enter cells and deliver siRNA into cells” and the “silencing effect compared to SWNT conjugates (FIG. 10A)” value (CXCR4; ~20 nM nanoparticle) was “greater silencing efficiency at day 3”.
In the case of “SWNT-protein: Fluorescently labeled BSA non-specifically bound to oxidized Hipco SWNTs”, the cellular internalization (HL60 and HeLa cells; 1-3 h at 37 °C) was “cellular internalization” and the “level of fluorescence in the cells” value (HL60 and HeLa cells; 4 °C incubation and NaN3 pretreatment (ATP depletion)) was “considerably lower”.
In the case of “SA: Fluoresceinated streptavidin protein alone, MW ~60 kD”, the “fluorescence of cells by flow cytometry” value (HL60 cells) was “only slightly greater than the background fluorescence of untreated cells”.
